# Patent publication US20130236960A1, “VITRIFICATED STORAGE SOLUTION FOR CELLS” (priority 2010, published 2013)
# “Also recorded” adds a separate entry of the source.
# Experiments:
# [1] = Vitrification ability of cell membrane permeable substances by rapid cooling with liquid nitrogen; type: physicochemical; conditions: 30% solution in PBS
# Description: The 10 to 50% solutions of 6 dials (EG, PG, BG, IPG, DPG and PEG) and of DMSO were prepared and confirmed to be vitrified by rapid cooling with liquid nitrogen. Specifically, respective cell membrane permeable substances are dissolved in PBS to concentrations of 10, 20, 30, 40 and 50%, and the solution was stained with a small amount of phenol red in order to readily judge the vitrification. The solution thus prepared was divided into 200 μl portions in cryo-tubes, which were dipped into liquid nitrogen for rapid cooling. The tubes were dipped into liquid nitrogen for 5 minutes or more to stabilize the temperature before observation of each tube.
# [2] = test system: Mouse ES cell line strain D3; assay: Vitrification preservation efficiency with mouse ES cells (trypan blue survival rate, colony observation); type: cell-based; conditions: for colonies after vitrification, melting and culture: cell membrane permeable substance used alone, 40%, 60 seconds, 3 days culture
# Description: The mouse ES cells after vitrification and melting were seeded, and the state of the cells after culture was confirmed by microscopic observation.
# (§1) Specifically, the experiment was conducted as follows: • Mouse ES cells were cultured according to the ordinary method. • The mouse ES cells recovered were counted, divided into 10^6 cell portions in 1.5 ml tubes, and centrifuged at 1500 rpm for 5 minutes. • The supernatant was removed, and the cells were suspended in 200 μl of the vitrification medium. • After suspension, DAP213 and the test fluid were dipped into liquid nitrogen after 15 seconds and 60 seconds, respectively, for vitrification. • The tubes were left standing for 5 minutes or more to stabilize the temperature. • The tubes were taken out liquid nitrogen, and the cells were diluted with 1800 μl of the culture medium preliminarily heated to 37° C. and rapidly suspended for melting. • A portion of the suspension was sampled for counting the cells. • On counting the cells, the life or death of cells was judged from the index of the selective excretive ability of the viable cells to trypan blue and the survival rate was calculated. • The remaining cells were seeded in a 24 well plate, and the state after 3 days was confirmed by microscopic observation.
# The 40% solution of each cell membrane permeable substance in PBS was prepared, and the mouse ES cells was suspended in the solution, left standing for 60 seconds, and dipped into liquid nitrogen for vitrification.
# as §1, with “Specifically,” for “Specifically, the”, “out from” for “out”
# as §1, with “Specifically,” for “Specifically, the”, “out from” for “out”, “calculated.” for “calculated. • The remaining cells were seeded in a 24 well plate, and the state after 3 days was confirmed by microscopic observation.”
# [3] = test system: Common marmoset (CM) ES cells; assay: Cytotoxicity and influence on differentiation with common marmoset ES cells; type: cell-based; conditions: 2% in culture medium for CMES; for nature of the colony morphology: after 3 days
# Description: Specifically, the experiment was conducted as follow • CMES cells were cultured with reference to “Establishment of novel embryonic stem cell lines derived from the common marmoset” ([…], Izawa […], Asano 5, Nakatsuji N, Okano H, Tani K. Stem Cells. 2005 October; 23(9):1304-13). • CMES cells were seeded in a φ35 mm dish to which feeder cells had preliminarily been adhered, and the cell membrane permeable substance was added in an amount corresponding to 2% of the amount of the culture medium. • After 3 days, microscopic observation was conducted, and the presence of the growth suppression and differentiation promotion on CMES cells was examined.
# [4] = test system: Common marmoset ES cell line strain CMES40; assay: Preservation effect on common marmoset ES cells (take rate, ALP-positive colonies); type: cell-based; conditions: cell membrane permeable substance used alone, with trehalose, 60 seconds
# From the text: According to the present invention, it is possible to provide a vitrification medium which is excellent in operability and safety and can efficiently preserve cells, particularly primate ES/iPS cells. Specifically, the take rate of ca. 60% could be obtained even if simian ES cells were suspended in the vitrification medium of the present invention and after 60 seconds the suspension was poured into liquid nitrogen (as described hereinafter, the “take rate” in place of the “survival rate” is used with respect to the preservation efficiency of simian ES cells. In this place, the take rate is calculated on the basis of the number of undifferentiated colonies having taken after three or four days from the seeding of the cells without vitrification as 100). Hitherto, when DAP213, which has been most commonly used, was used, it was important to pour the cell suspension into liquid nitrogen within 15 seconds after suspending the cells in DAP213 for avoiding the lowering of the survival rate. Due to this fact, skillfulness was required for operations and wide dispersion in results was apprehended to occur depending on the technical skills of operators, so that a stable result was not always obtained. […]
# [5] = Solubility at low temperature; type: physicochemical
# [6] = Examination of vitrification promoting substances in 30% DMSO/PBS; type: physicochemical; conditions: 0.3 M added to 30% DMSO solution
# Description: Specifically, the experiment was conducted as follows: • As the vitrification promoting substance, the following saccharides were examined: glucose, sucrose, maltose, fructose, trehalose, raffinose, erythritol, xylitol, sorbitol and mannitol. • The vitrification promoting substance was dissolved in 30% DMSO/PBS to a concentration of 0.3 M and 0.6 M respectively. • The solution thus prepared was divided into 200 μl portions in cryo-tubes, which were dipped into liquid nitrogen for rapid cooling. The tubes were dipped into liquid nitrogen for 5 minutes or more to stabilize the temperature before observation of each tube.
# [7] = Examination of ice crystal growth inhibitor: time for melting the vitrified storage solution; type: physicochemical; conditions: for time required for the once vitrificated storage solution to be melted completely: 40% EG storage solution with the additive
# Description: Examination of the ice crystal growth inhibitor was conducted by comparing the times required for melting the crystallized vitrificated storage solutions. That is, when crystal lumps having the same volume are melted, a polycrystalline substance having a larger total surface area is melted more quickly. It is believed that when the growth of ice crystals is suppressed on the phase transition to crystalline state, the melting time is shortened probably due to the formation of many minute ice crystals.
# Specifically, experiment was conducted according to the following procedure. • The test fluid prepared was dispensed in a portion of 200 μl into 1.5 ml microtubes. • Dewar vessel was charged with liquid nitrogen, and a timer was provided. • The microtube was picked up with tweezers and dipped into liquid nitrogen for 40 seconds for vitrification. • The microtube was pulled out from liquid nitrogen, and the time required for complete disappearance of ice within the tube was measured.
compound,measurement,setting,value
"OCCCCO [BG, Butylene glycol]",vitrification by rapid cooling with liquid nitrogen,[1],vitrified
"C[S+](C)[O-] [DMSO, Dimethyl sulfoxide]","colonies after vitrification, melting and culture",[2],least number of colonies
same,differentiation promoting effect on the CMES cells,[3],no differentiation promoting effect
same,nature of the colony morphology,[3],good
same,vitrification by rapid cooling with liquid nitrogen,[1],no vitrification occurs
"CC(O)COC(C)CO (centres unmarked) [DPG, Diprepylene glycol]",vitrification by rapid cooling with liquid nitrogen,[1],vitrified
"OCCO [EG, Ethylene glycol]",survival rate after melting,"[2]; 40% solution in PBS, left standing for 60 seconds before vitrification",substantially lowered as compared with DMSO+PG; also recorded: second highest
same,"colonies after vitrification, melting and culture",[2],biggest colony
same,differentiation promoting effect on the CMES cells,[3],no differentiation promoting effect
same,nature of the colony morphology,[3],good
same,preservation efficiency,[4],high preservation efficiency
"CC(C)(O)CCO [IPG, Isoprene glycol]",vitrification by rapid cooling with liquid nitrogen,[1],vitrified
"CC(O)CO (centres unmarked) [PG, Propylene glycol]","colonies after vitrification, melting and culture",[2],secondly
same,differentiation promoting effect on the CMES cells,[3],no differentiation promoting effect
same,nature of the colony morphology,[3],good
same,vitrification by rapid cooling with liquid nitrogen,[1],vitrified
"CC(N)=O [acetamide, Acetamide]","survival rate, effect of acetamide","[2]; DAP213 versus DP23, vitrification after 60 seconds",reduced
same,improvement of the survival rate due to acetamide,"[2]; DAP213 versus DP23, vitrification within 15 seconds",not recognized
"OC[C@H]1O[C@H](OC[C@H]2O[C@H](O[C@]3(CO)O[C@H](CO)[C@@H](O)[C@@H]3O)[C@H](O)[C@@H](O)[C@@H]2O)[C@H](O)[C@@H](O)[C@H]1O [raffinose, D-(+)-Raffinose-pentahydrate]",solubility,[5],low solubility
same,vitrification by rapid cooling in liquid nitrogen,[6],vitrified
"OC[C@H]1O[C@@](CO)(O[C@H]2O[C@H](CO)[C@@H](O)[C@H](O)[C@H]2O)[C@@H](O)[C@@H]1O [sucrose, Sucrose, reference compound]",time required for the once vitrificated storage solution to be melted completely,[7],no reduction of melting time
"OC[C@H]1O[C@H](O[C@H]2O[C@H](CO)[C@@H](O)[C@H](O)[C@H]2O)[C@H](O)[C@@H](O)[C@@H]1O [trehalose, D-(+)-Trehalose-dihydrate]",time required for the once vitrificated storage solution to be melted completely,[7],no reduction of melting time
same,vitrification by rapid cooling in liquid nitrogen,[6],vitrified
Bovine serum albumin [reference compound],time required for the once vitrificated storage solution to be melted completely,[7],"an effect similar to that of sericin, its activity remained unsatisfactory"
sericin,time required for the once vitrificated storage solution to be melted completely,[7],shortened
same,growth of ice crystals,[7]; concluded from melting time,suppresses the growth of ice crystals
